# Where “and” joins values, the source holds several entries; their conditions need not be identical. Identical values can stand only once. Like-named read-outs stand apart in the source and are kept apart here.
# What was measured:
# AtAHAS P197L mutant [1] = biological target: T1, AtAHAS P197L mutant (Arabidopsis thaliana, UniProt P17597, P197L); test: biochemical
# Description: (§1) Standard assays were performed using a continuous spectrophotometric method measuring the disappearance of pyruvate. The standard buffer contained 50 mM potassium phosphate, pH 7.2, 1 mM ThDP, 10 mM MgCl2, and 10 µM FAD. The concentration of pyruvate was in the range 100–160 mM, as described in the text, methods, or figure legends.
# (§2) Supplementary Figure 6. Measurement of the Ki values for WT AtAHAS and the mutants.
# (§3) The error bars represent the standard error of the mean of two independent replicates. [I] =
# (§4) inhibitor concentration. Source data are provided with this paper.
# (§5) (1 picture or pasted object on this page, not shown here)
# AtAHAS P197T mutant [2] = biological target: T2, AtAHAS P197T mutant (Arabidopsis thaliana, UniProt P17597, P197T); test: biochemical
# Description: as §1, §2, §3, §4, §5
# AtAHAS S653T mutant [3] = biological target: T3, AtAHAS S653T mutant (Arabidopsis thaliana, UniProt P17597, S653T); test: biochemical
# Description: as §1, §2, §3, §4, §5
# AtAHAS W574L mutant [4] = biological target: T4, AtAHAS W574L mutant (Arabidopsis thaliana, UniProt P17597, W574L); test: biochemical
# Description: as §1, §2, §3, §4, §5
# WT AtAHAS [5] = biological target: T5, WT AtAHAS (Arabidopsis thaliana, UniProt P17597); assay type: biochemical
# Description: as §1
# (§6) AtAHAS was assayed in the standard assay buffer containing 160 mM pyruvate, at 30 °C. For AtAHAS activation the progress curve corresponding to the lag-phase was fitted to Eq. (8) of Lonhienne et al.[14]. For the time dependent accumulative inhibition of AtAHAS the progress curves were fitted to Equation 9 of Lonhienne et al.[12].
# (§7) Supplementary Figure 8. Measurement of the rate constants of accumulative inhibition for WT AtAHAS and its mutants. The progress curves were fitted to the equation of accumulative inhibition (Equation 7 2). The rate constants of enzyme inactivation ( kiapp) and enzyme recovery (k3) were measured in triplicate. Source data are provided with this paper.
# AtAHAS P197L mutant [6] = biological target: T1, AtAHAS P197L mutant; assay type: biochemical
# Description: as §1, §6
# as §7, with “paper. […]” for “paper.”
# AtAHAS P197T mutant [7] = biological target: T2, AtAHAS P197T mutant; assay type: biochemical; settings: P197T
# Description: as §1, §6
# as §7, with “paper. […]” for “paper.”
# AtAHAS S653T mutant [8] = biological target: T3, AtAHAS S653T mutant; assay type: biochemical; settings: S653T
# Description: as §1, §6
# as §7, with “paper. […]” for “paper.”
# AtAHAS W574L mutant [9] = biological target: T4, AtAHAS W574L mutant; assay type: biochemical; settings: NAI = no accumulative inhibition detected
# Description: as §1, §6
# as §7, with “paper. […]” for “paper.”
# WT AtAHAS [10] = biological target: T5, WT AtAHAS; settings: cited from earlier work
# [11] = individual replicate of triplicate
# [12] = 160 mM pyruvate, 30 °C, NAI = no accumulative inhibition detected
# [13] = NAI = no accumulative inhibition detected
smiles,measurement,setting,value
"CC(C)C1(C)N=C(c2nc3ccccc3cc2C(=O)O)NC1=O (centres unmarked) [IQ, imazaquin]",Ki,"AtAHAS P197L mutant [1]; Ki (Supplementary Figure 6), P197L, fit of % activity remaining vs [I], two independent replicates",13.8 ± 1.14 µM
same,Ki,"AtAHAS P197L mutant [1]; Ki, P197L mutant, ± standard error of the mean",13.8 ± 1.1 µM
same,Ki,"AtAHAS P197T mutant [2]; Ki (Supplementary Figure 6), P197T, fit of % activity remaining vs [I], two independent replicates",12.4 ± 1.83 µM
same,Ki,"AtAHAS P197T mutant [2]; Ki, P197T mutant, ± standard error of the mean",12.4 ± 1.8 µM
same,Ki,"AtAHAS S653T mutant [3]; Ki (Supplementary Figure 6), S653T, fit of % activity remaining vs [I], two independent replicates",240 ± 25.5 µM
same,Ki,"AtAHAS S653T mutant [3]; Ki, S653T mutant, ± standard error of the mean",240 ± 26 µM
same,increase in Ki compared to WT,AtAHAS S653T mutant [3]; S653T vs WT,more than 10 fold
same,Ki,"AtAHAS W574L mutant [4]; Ki, W574L mutant, ± standard error of the mean",704 ± 58.5 µM
same,increase in Ki / loss of affinity compared to WT,AtAHAS W574L mutant [4]; W574L vs WT,38 fold
same,accumulative inhibition (in words),WT AtAHAS [5],irreversible
same,kiapp/k3 (efficiency of accumulative inhibition),WT AtAHAS [5],>10^11
same,k3 (rate of recovery),"WT AtAHAS [5]; 160 mM pyruvate, 30 °C, ± SEM",<1e-12 min⁻¹
same,kiapp (apparent rate of enzyme inactivation),"WT AtAHAS [5]; 160 mM pyruvate, 30 °C, ± SEM",0.86 ± 0.03 min⁻¹
same,"k3, single progress curve (Supplementary Figure 8)",WT AtAHAS [5]; [11],~ 0 min-1
same,"kiapp, single progress curve (Supplementary Figure 8)",WT AtAHAS [5]; [11],0.86 min⁻¹ and 0.92 min⁻¹ and 0.83 min⁻¹
same,k3 (rate of recovery),AtAHAS P197L mutant [6]; [12],<1e-12 min⁻¹
same,kiapp (apparent rate of enzyme inactivation),AtAHAS P197L mutant [6]; [12],0.26 ± 0.008 min⁻¹
same,kiapp/k3 (efficiency of accumulative inhibition),AtAHAS P197L mutant [6]; [13],>10^11
same,"k3, single progress curve (Supplementary Figure 8)",AtAHAS P197L mutant [6]; [11],~ 0 min-1
same,"kiapp, single progress curve (Supplementary Figure 8)",AtAHAS P197L mutant [6]; [11],0.25 min-1 (2×) and 0.26 min-1
same,k3 (rate of recovery),AtAHAS P197T mutant [7]; [12],<1e-12 min⁻¹
same,kiapp (apparent rate of enzyme inactivation),AtAHAS P197T mutant [7]; [12],0.27 ± 0.012 min⁻¹
same,kiapp/k3 (efficiency of accumulative inhibition),AtAHAS P197T mutant [7]; [13],>10^11
same,"k3, single progress curve (Supplementary Figure 8)",AtAHAS P197T mutant [7]; [11],~ 0 min-1
same,"kiapp, single progress curve (Supplementary Figure 8)",AtAHAS P197T mutant [7]; [11],0.29 min-1 and 0.28 min-1 (2×)
same,kiapp/k3 (efficiency of accumulative inhibition),AtAHAS S653T mutant [8],>10^11
same,k3 (rate of recovery),"AtAHAS S653T mutant [8]; 160 mM pyruvate, 30 °C, ± SEM",<1e-12 min⁻¹
same,kiapp (apparent rate of enzyme inactivation),"AtAHAS S653T mutant [8]; 160 mM pyruvate, 30 °C, ± SEM",0.37 ± 0.017 min⁻¹
same,"k3, single progress curve (Supplementary Figure 8)",AtAHAS S653T mutant [8]; [11],~ 0 min-1
same,"kiapp, single progress curve (Supplementary Figure 8)",AtAHAS S653T mutant [8]; [11],0.34 min⁻¹ and 0.38 min⁻¹ and 0.39 min⁻¹
same,k3 (rate of recovery),"AtAHAS W574L mutant [9]; 160 mM pyruvate, 30 °C",NAI
same,kiapp (apparent rate of enzyme inactivation),"AtAHAS W574L mutant [9]; 160 mM pyruvate, 30 °C",NAI
same,kiapp/k3 (efficiency of accumulative inhibition),AtAHAS W574L mutant [9],NAI
same,Ki,WT AtAHAS [10],18 µM
same,Ki,"WT AtAHAS [10]; ± standard error of the mean, ref Garcia et al.[13]",18.5 ± 2 µM

# — publication PMC9188596, “Structural basis of resistance to herbicides that target acetohydroxyacid synthase” (Nature Communications, 2022)
